Experimental data published in PubChem BioAssay (NCI).
“And” between values parts separate entries of the source, which are not always exact repeats. Equal entries are not always repeated.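 A five-concentration, 48-hour dose response in 96-well plates underlies each endpoint, interpolated linearly between surrounding concentrations. Here, GI50 denotes the concentration required for 50% inhibition of growth. TGI marks complete inhibition of growth.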

Columns and labels:
Assay in all cases: growth of human tumour cells (NCI), 48 h
[1] = system: SF-268 CNS
[2] = system: HS 578T breast
[3] = system: SK-OV-3 ovarian
[4] = system: UO-31 renal
[5] = system: RXF 393 renal
[6] = system: OVCAR-5 ovarian
[7] = system: SNB-19 CNS
[8] = system: MDA-MB-231 breast
[9] = system: HCT-116 colon
[10] = system: SNB-75 CNS

Row | Structure (SMILES) | TGI [1] | TGI [2] | TGI [3] | TGI [4] | TGI [5] | TGI [6] | TGI [7] | TGI [8] | TGI [9] | TGI [10] | GI50 [1] | GI50 [2] | GI50 [3] | GI50 [4] | GI50 [5] | GI50 [6] | GI50 [7] | GI50 [8] | GI50 [9] | GI50 [10]
1 | CCCCCCCCCCCCCCCCSS(C)(=O)=O | > 35.9 µM | > 100 µM | > 100 µM | 35.7 µM | 10.9 µM | > 100 µM | > 100 µM | > 100 µM | 43.5 µM | 32.6 µM | – | – | – | – | – | – | – | – | – | –
2 | COc1cc(/C=C/C(=O)c2ccc(F)cc2)ccc1OCCCCOc1cc2c(cc1OC)C(=O)N1CCCC1C=N2 (stereo unspecified) | 12.5 µM | 9.36 µM | > 44.5 µM | – | 9.21 µM | > 26.6 µM | > 19.9 µM | > 21.2 µM | 6.09 µM | 15 µM | 1.03 µM | 0.336 µM | 1.67 µM | 0.891 µM | 1.07 µM | 3.85 µM | 1.04 µM | 1.27 µM | 0.618 µM | 0.994 µM
3 | OCCNC(=S)Nc1ccc(-c2nc(N3C[C@H]4CC[C@@H](C3)O4)c3cccn3n2)cc1 | 25.8 µM | 0.248 µM | 0.104 µM | 0.194 µM | 0.131 µM | 15.3 µM | 13.2 µM | 6.57 µM | 21.7 µM | 0.264 µM | 0.079 µM | 0.0221 µM | 0.0162 µM | < 0.0152 µM | < 0.0135 µM | 0.0379 µM | 0.189 µM | 0.0583 µM | 0.357 µM | < 0.0124 µM
4 | O=C(CC(O)c1cccnc1)CC(O)c1cccnc1 (stereo unspecified) | > 95.9 µM | > 100 µM | 32.6 µM | 32.5 µM | 32.1 µM | 54 µM | 55.4 µM | 29.9 µM | 4.33 µM | 35.4 µM | – | – | – | – | – | – | – | – | – | –
5 | C[C@@]1([C@H](OC(=O)c2cccc3ccccc23)C(N)=O)CO1 | > 43 µM | > 24.6 µM | 19.7 µM | 8.8 µM | > 21.3 µM | 24.9 µM | > 37.5 µM | 9.12 µM | 8.43 µM | 37.1 µM | 4.62 µM | 3.59 µM | 6.35 µM | 2.25 µM | 4.91 µM | 3.95 µM | 5.75 µM | 1.27 µM | 0.368 µM | 5.9 µM
6 | CC(C)(C)n1nc(C2CC2)cc1NC(=O)Nc1ccc(Cl)cc1 | > 100 µM | > 100 µM | > 100 µM | > 100 µM | > 100 µM | > 100 µM | > 100 µM | > 100 µM | > 100 µM | > 100 µM | – | – | – | – | – | – | – | – | – | –
7 | O=C1/C(=N/N=C(c2ccccc2)c2ccccc2)c2ccccc2-c2ccccc21 | > 100 µM | > 100 µM | > 100 µM | > 100 µM | > 100 µM | > 100 µM | > 100 µM | > 100 µM | > 100 µM | > 100 µM | – | – | – | – | – | – | – | – | – | –
8 | Cc1ccccc1NC(=O)N/C(N)=N/c1nc(C)c(C)s1 | > 100 µM | > 100 µM | > 100 µM | > 100 µM | 0.907 µM | > 100 µM | 52.7 µM | > 100 µM | > 75.9 µM | 0.754 µM | 15.9 µM | 0.488 µM | 0.596 µM | 1.1 µM | 0.187 µM | 0.912 µM | 0.283 µM | 1.52 µM | 0.321 µM | 0.175 µM
9 | O=C1c2cccc3c([N+](=O)[O-])ccc(c23)C(=O)N1CCCCl | > 10 µM | > 10 µM | > 10 µM | > 10 µM | > 10 µM | > 10 µM | > 10 µM | > 10 µM | 3.16 µM | > 10 µM | 3.17 µM | 4.6 µM | > 10 µM | > 10 µM | 3.85 µM | > 10 µM | > 10 µM | > 10 µM | 1.71 µM | 2.86 µM
10 | COc1ccc(Nc2[nH]n(C3=Nc4ccccc4Sc4ccccc43)c(=O)c2C#N)cc1 | 34.3 µM | > 100 µM | 54.1 µM | > 100 µM | 9.75 µM | > 100 µM | > 100 µM | 11.9 µM | 12 µM | > 100 µM | 2.37 µM | 1.98 µM | 5.9 µM | 1.02 µM | 1.73 µM | 10.8 µM | 3.53 µM | 1.39 µM | 1.33 µM | 1.51 µM
11 | Cc1c(C)n(CC(O)CNC2CCCCC2C)c2ccccc12 (stereo unspecified) | 30.2 µM | 43 µM | 32.9 µM | 23.4 µM | 23 µM | 25.7 µM | 30.9 µM | 20.5 µM | 24.4 µM | 21.7 µM | 15.4 µM | 16.3 µM | 18.2 µM | 10.8 µM | 10.5 µM | 12.9 µM | 15.5 µM | 6.44 µM | 12 µM | 10.1 µM
12 | Nc1ncnc2c1ncn2C1OC(CO)CC1O (stereo unspecified) | > 100 µM | 82.2 µM | > 100 µM | > 100 µM | > 100 µM | > 100 µM | > 100 µM | 42.7 µM | > 100 µM | > 100 µM | – | – | – | – | – | – | – | – | – | –
13 | C=CC1CC12C(=O)C1OC2(C)C2C(=O)c3c(O)cccc3C(=O)C12 (stereo unspecified) | > 100 µM | 88.3 µM | > 100 µM | > 100 µM | 41.1 µM | > 100 µM | > 100 µM | 59 µM | > 100 µM | > 100 µM | 30.5 µM | 21.8 µM | 94.5 µM | > 100 µM | 13.1 µM | > 100 µM | 87.8 µM | 18.7 µM | 38.1 µM | 72.4 µM
14 | O=C(/C=C/c1ccccc1)Nc1ncc(Cc2ccccc2)s1 | > 100 µM | 20.8 µM | 6.24 µM | 23.3 µM | 1.59 µM | 35.8 µM | > 52.3 µM | 9.28 µM | > 33.4 µM | 1.99 µM | 0.963 µM | 0.287 µM | 0.458 µM | 0.463 µM | 0.267 µM | 0.469 µM | 0.392 µM | 0.415 µM | 0.141 µM | 0.138 µM
15 | CS(=O)(=O)OCCCCOS(C)(=O)=O | 223 µM and > 1000 µM | > 1000 µM | > 1000 µM | 250 µM and > 1000 µM | 223 µM and > 1000 µM | > 1000 µM | 233 µM and > 1000 µM | > 1000 µM | 250 µM and > 1000 µM | 221 µM and > 1000 µM | 424 µM | > 555 µM | 804 µM | > 886 µM | 523 µM | > 698 µM | > 862 µM | > 250 µM | 689 µM | 431 µM
16 | CS(=O)(=O)c1nccc(-c2c(-c3cccc(OCc4ccccc4)c3)nc3sccn23)n1 | > 100 µM | > 100 µM | > 100 µM | 78 µM | > 100 µM | > 100 µM | > 100 µM | > 100 µM | > 100 µM | > 100 µM | 19.1 µM | 12.9 µM | 23.3 µM | 21.2 µM | 15.3 µM | > 100 µM | > 43.8 µM | 16.2 µM | 7.16 µM | > 28.5 µM
17 | COc1ccc(C2CC(c3ccc4ccccc4c3)=NN2/C=C2\SC(=S)N(NC(=O)Cc3ccccc3Nc3c(Cl)cccc3Cl)C2=O)cc1 (stereo unspecified) | > 48.8 µM | > 37.6 µM | > 100 µM | – | 1.16 µM | > 45.6 µM | > 46.8 µM | > 44.4 µM | > 39.6 µM | 1.4 µM | 0.809 µM | 0.415 µM | 0.847 µM | 0.354 µM | 0.282 µM | 1.74 µM | 0.636 µM | 1.6 µM | 0.482 µM | 0.257 µM
18 | COc1ccc(NC(=O)COc2ccccc2)c(C(N)=O)c1 | > 75.1 µM | 97.1 µM | > 100 µM | > 100 µM | 13.5 µM | > 100 µM | > 68.9 µM | > 63 µM | > 100 µM | 11.2 µM | 4.25 µM | 0.871 µM | 3.35 µM | 6.99 µM | 1.9 µM | 7.14 µM | 1.9 µM | 1.91 µM | 0.588 µM | 0.398 µM
19 | CN(C)C(=O)C(NCCO)c1ccccc1 (stereo unspecified) | > 100 µM | > 100 µM | > 100 µM | > 100 µM | > 100 µM | > 100 µM | > 100 µM | > 100 µM | > 100 µM | > 100 µM | – | – | – | – | – | – | – | – | – | –
20 | COc1ccc2c(c1)O/C(=C\c1ccc([N+](=O)[O-])o1)C2=O | 16.8 µM | 7.32 µM | 59 µM | 4.3 µM | 2.99 µM | 5.78 µM | > 100 µM | 6.63 µM | 0.747 µM | 8.26 µM | 2 µM | 2.36 µM | 4.75 µM | 1.41 µM | 1.47 µM | 2.27 µM | 3.09 µM | 2.03 µM | 0.246 µM | 2.24 µM
21 | NNC(=O)C(O)C(O)C(O)CO (stereo unspecified) | > 100 µM | > 100 µM | > 100 µM | > 100 µM | > 100 µM | > 100 µM | > 100 µM | > 100 µM | > 100 µM | > 100 µM | – | – | – | – | – | – | – | – | – | –
22 | COc1ccc2nc(-c3ccc(Cl)cc3)cc(-c3nnc(SCC(=O)Nc4ccc(/C(C)=N\O)cc4)o3)c2c1 | 5.06 µM | 17.9 µM | 18.7 µM | 20.5 µM | 5.97 µM | 10.2 µM | 3.09 µM | 8.34 µM | – | 6.34 µM | 1.44 µM | 2.77 µM | 6.23 µM | 3.26 µM | 1.51 µM | 2.06 µM | 1.18 µM | 2.05 µM | – | 1.08 µM
